Measurements reported in PubChem BioAssay (NCI).
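Test compounds were applied to cells in 96-well plates for 48 hours at 5 doses. GI50 marks 50% less growth. TGI denotes the concentration required for complete inhibition of growth.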

Columns and labels:
Test in all cases: NCI tumour cell line growth inhibition, 48 h; in the data active = GI50 below about 0.43 µM; inactive = the rest
[1] = system: 786-0 renal
[2] = system: A498 renal
[3] = system: A549 NSCLC
[4] = system: ACHN renal
[5] = system: BT-549 breast
[6] = system: CAKI-1 renal
[7] = system: CCRF-CEM leukemia
[8] = system: COLO 205 colon
[9] = system: DU-145 prostate
[10] = system: EKVX NSCLC
[11] = system: HCC-2998 colon
[12] = system: HCT-116 colon
[13] = system: HCT-15 colon
[14] = system: HL-60(TB) leukemia
[15] = system: HOP-62 NSCLC
[16] = system: HOP-92 NSCLC
[17] = system: HT29 colon
[18] = system: IGROV1 ovarian
[19] = system: K-562 leukemia
[20] = system: KM12 colon
[21] = system: LOX IMVI melanoma
[22] = system: M14 melanoma
[23] = system: MALME-3M melanoma
[24] = system: MCF7 breast
[25] = system: MDA-MB-231 breast
[26] = system: MDA-MB-435
[27] = system: MOLT-4 leukemia
[28] = system: NCI-H226 lung
[29] = system: NCI-H23 lung
[30] = system: NCI-H460 lung
[31] = system: NCI-H522 lung
[32] = system: OVCAR-3 ovarian
[33] = system: OVCAR-4 ovarian
[34] = system: OVCAR-5 ovarian
[35] = system: PC-3 prostate
[36] = system: RPMI-8226 leukemia
[37] = system: RXF 393 renal
[38] = system: SF-268 CNS
[39] = system: SF-295 CNS
[40] = system: SF-539 CNS
[41] = system: SK-MEL-2 melanoma
[42] = system: SK-MEL-28 melanoma
[43] = system: SK-MEL-5 melanoma
[44] = system: SK-OV-3 ovarian
[45] = system: SN12C renal
[46] = system: SNB-19 CNS
[47] = system: SNB-75 CNS
[48] = system: SR leukemia
[49] = system: SW-620 colon
[50] = system: TK-10 renal
[51] = system: U251 CNS
[52] = system: UACC-257 melanoma
[53] = system: UACC-62 melanoma
[54] = system: UO-31 renal
[55] = system: HS 578T breast
[56] = system: NCI/ADR-RES ovarian
[57] = system: OVCAR-8 ovarian

O=C1c2c(c3c4ccccc4[nH]c3c3ccc4ccccc4c23)C(=O)N1CCN1CCNCC1
3.1 µM: TGI [42]
4.14 µM: TGI [16]
2.98 µM: TGI [13]
2.9 µM: TGI [4]
3.39 µM: TGI [37]
2.64 µM: TGI [3]
3.06 µM: TGI [12] | TGI [40]
3.48 µM: TGI [32]
2.97 µM: TGI [5]
2.99 µM: TGI [46]
3.26 µM: TGI [33]
3.58 µM: TGI [44]
4.22 µM: TGI [7]
3.77 µM: TGI [53]
3.09 µM: TGI [19]
3.11 µM: TGI [21] | TGI [26]
3.82 µM: TGI [52]
1.88 µM: TGI [27]
3.25 µM: TGI [9]
3.15 µM: TGI [10] | TGI [11]
2.69 µM: TGI [6]
3.31 µM: TGI [43]
4.1 µM: TGI [36]
3.13 µM: TGI [45]
2.82 µM: TGI [47]
33.3 µM: TGI [28]
3.61 µM: TGI [31]
4.03 µM: TGI [38]
3.7 µM: TGI [29]
2.63 µM: TGI [48]
inactive: GI50 [1] 1.76 µM | GI50 [2] 4.19 µM | GI50 [3] 1.16 µM | GI50 [4] 1.56 µM | GI50 [5] 1.58 µM | GI50 [6] 1.37 µM | GI50 [7] 1.33 µM | GI50 [8] 1.78 µM | GI50 [9] 1.73 µM | GI50 [10] 1.59 µM | GI50 [11] 1.63 µM | GI50 [12] 1.59 µM | GI50 [13] 1.49 µM | GI50 [14] 1.61 µM | GI50 [15] 1.81 µM | GI50 [16] 1.83 µM | GI50 [17] 1.72 µM | GI50 [18] 1.46 µM | GI50 [19] 1.44 µM | GI50 [20] 1.5 µM | GI50 [21] 1.63 µM | GI50 [22] 1.67 µM | GI50 [23] 1.57 µM | GI50 [24] 1 µM | GI50 [25] 1.72 µM | GI50 [26] 1.67 µM | GI50 [27] 0.487 µM | GI50 [28] 11.7 µM | GI50 [29] 1.84 µM | GI50 [30] 1.1 µM | GI50 [31] 1.75 µM | GI50 [32] 1.83 µM | GI50 [33] 1.65 µM | GI50 [34] 1.72 µM | GI50 [35] 1.68 µM | GI50 [36] 1.81 µM | GI50 [37] 1.76 µM | GI50 [38] 1.86 µM | GI50 [39] 1.85 µM | GI50 [40] 1.68 µM | GI50 [41] 2.03 µM | GI50 [42] 1.68 µM | GI50 [43] 1.78 µM | GI50 [44] 1.86 µM | GI50 [45] 1.68 µM | GI50 [46] 1.6 µM | GI50 [47] 1.47 µM | GI50 [48] 0.598 µM | GI50 [49] 1.49 µM | GI50 [50] 1.77 µM | GI50 [51] 1.64 µM | GI50 [52] 1.87 µM | GI50 [53] 1.86 µM | GI50 [54] 1.24 µM
4.7 µM: TGI [41]
3.27 µM: TGI [17] | TGI [25]
2.53 µM: TGI [54]
3.67 µM: TGI [35]
3.69 µM: TGI [15]
2.6 µM: TGI [30]
3.42 µM: TGI [39]
3.21 µM: TGI [1] | TGI [51]
19.6 µM: TGI [2]
3.07 µM: TGI [20]
3.12 µM: TGI [34]
3.24 µM: TGI [22] | TGI [50]
3.16 µM: TGI [49]
2.84 µM: TGI [18]
3.6 µM: TGI [8]
2.42 µM: TGI [24]
3.18 µM: TGI [23]
3.5 µM: TGI [14]

CO/N=C(/C)c1ccc(NC(=O)CSc2nnc(-c3ccncc3)n2-c2ccccc2)cc1
> 100 µM: TGI [7] | TGI [8] | TGI [11] | TGI [12] | TGI [13] | TGI [14] | TGI [17] | TGI [19] | TGI [20] | TGI [22] | TGI [27] | TGI [29] | TGI [34] | TGI [36] | TGI [42] | TGI [44] | TGI [48] | TGI [49] | TGI [51]
4.93 µM: TGI [37]
8.79 µM: TGI [25]
inactive: GI50 [2] 2.15 µM | GI50 [7] > 100 µM | GI50 [8] > 100 µM | GI50 [11] > 100 µM | GI50 [12] 3.43 µM | GI50 [13] > 100 µM | GI50 [14] > 100 µM | GI50 [16] 2.32 µM | GI50 [17] > 100 µM | GI50 [19] > 100 µM | GI50 [20] > 100 µM | GI50 [22] > 100 µM | GI50 [25] 2.57 µM | GI50 [27] > 100 µM | GI50 [29] 4.24 µM | GI50 [34] > 100 µM | GI50 [36] > 100 µM | GI50 [37] 2.24 µM | GI50 [41] 11.1 µM | GI50 [42] > 100 µM | GI50 [44] 3.34 µM | GI50 [48] > 100 µM | GI50 [49] > 100 µM | GI50 [51] 3.22 µM
55.1 µM: TGI [41]
8.08 µM: TGI [2]
6.07 µM: TGI [16]

COc1ccc(CC2(O)C3CC4CCC2C4C3)cc1 (stereo unspecified)
> 100 µM: TGI [1] | TGI [3] | TGI [4] | TGI [5] | TGI [6] | TGI [7] | TGI [8] | TGI [10] | TGI [13] | TGI [14] | TGI [15] | TGI [16] | TGI [55] | TGI [17] | TGI [18] | TGI [19] | TGI [20] | TGI [21] | TGI [22] | TGI [23] | TGI [24] | TGI [26] | TGI [27] | TGI [28] | TGI [29] | TGI [30] | TGI [31] | TGI [56] | TGI [32] | TGI [33] | TGI [34] | TGI [57] | TGI [35] | TGI [36] | TGI [38] | TGI [39] | TGI [41] | TGI [42] | TGI [43] | TGI [44] | TGI [45] | TGI [46] | TGI [47] | TGI [48] | TGI [49] | TGI [50] | TGI [51] | TGI [52] | TGI [53] | TGI [54]
